Experimental data taken from ChEMBL document CHEMBL1201862, “PubChem BioAssay data set” (2004).
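Five concentrations, 48 hours, 96-well plates. The concentration for 50% growth inhibition is given as GI50.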 Calls of active or inactive are those of the source. Cut-off read from the data, not from the text of the source: active = GI50 up to about 1.1 µM and inactive = higher.

Key:
Assay in all cases: inhibition of tumour cell growth, NCI panel, 48 h
786-0 = system: 786-0
CCRF-CEM = system: CCRF-CEM
HL-60 = system: HL-60
HOP-62 = system: HOP-62
IGROV-1 = system: IGROV-1
K562 = system: K562
Malme-3M = system: Malme-3M
NCI-H23 = system: NCI-H23
NCI/ADR-RES = system: NCI/ADR-RES
OVCAR-3 = system: OVCAR-3
OVCAR-8 = system: OVCAR-8
RPMI-8226 = system: RPMI-8226
RXF 393 = system: RXF 393
SF-268 = system: SF-268
SK-MEL-5 = system: SK-MEL-5
SN12C = system: SN12C
SNB-19 = system: SNB-19
SNB-75 = system: SNB-75
SR = system: SR
UACC-62 = system: UACC-62

SMILES	GI50 (786-0)	GI50 (CCRF-CEM)	GI50 (HL-60)	GI50 (HOP-62)	GI50 (IGROV-1)	GI50 (K562)	GI50 (Malme-3M)	GI50 (NCI-H23)	GI50 (NCI/ADR-RES)	GI50 (OVCAR-3)	GI50 (OVCAR-8)	GI50 (RPMI-8226)	GI50 (RXF 393)	GI50 (SF-268)	GI50 (SK-MEL-5)	GI50 (SN12C)	GI50 (SNB-19)	GI50 (SNB-75)	GI50 (SR)	GI50 (UACC-62)
CCOP(=O)(OCC)C(Nc1cccc([N+](=O)[O-])c1)c1ccccc1 (stereo not drawn)	> 100 µM (inactive)	68.1 µM (inactive)	39.9 µM (inactive)	> 100 µM (inactive)	0.108 µM (active)	38.2 µM (inactive)	40.1 µM (inactive)	> 100 µM (inactive)	97.1 µM (inactive)	> 100 µM (inactive)	> 10 µM (inactive)	76.7 µM (inactive)	88.3 µM (inactive)	> 100 µM (inactive)	64.3 µM (inactive)	> 100 µM (inactive)	> 100 µM (inactive)	71.9 µM (inactive)	> 100 µM (inactive)	58.2 µM (inactive)
CC(C)(C)C1CCC2(CC1)CCN(CCCN1CCOCC1)CC2	20.2 µM (inactive)	25.4 µM (inactive)	13.1 µM (inactive)	> 41.5 µM (inactive)	> 65 µM (inactive)	8.51 µM (inactive)	18.5 µM (inactive)	52.1 µM (inactive)	> 100 µM (inactive)	> 100 µM (inactive)	> 81.1 µM (inactive)	17.5 µM (inactive)	27.4 µM (inactive)	> 83 µM (inactive)	8.05 µM (inactive)	> 86.3 µM (inactive)	> 71.4 µM (inactive)	24.8 µM (inactive)	27.1 µM (inactive)	8.91 µM (inactive)
C/C(=N\NC(=S)NC(C)C)c1nc2cccnc2[nH]1	20.3 µM (inactive)	2.88 µM (inactive)	8.93 µM (inactive)	18 µM (inactive)	19.8 µM (inactive)	4.48 µM (inactive)	33.9 µM (inactive)		40.5 µM (inactive)	6.62 µM (inactive)	7.98 µM (inactive)	> 100 µM (inactive)	33.8 µM (inactive)	14.8 µM (inactive)	13.1 µM (inactive)	> 56.5 µM (inactive)	30.9 µM (inactive)	28.1 µM (inactive)	11.7 µM (inactive)	29.8 µM (inactive)
COc1cc(CNC(=S)CCCCCCCCCCC(C)C)ccc1O	63.5 µM (inactive)	1.19 µM (inactive)	13.3 µM (inactive)	58.6 µM (inactive)	44.2 µM (inactive)	35.2 µM (inactive)	> 100 µM (inactive)	28.7 µM (inactive)	46.3 µM (inactive)		49 µM (inactive)	37.2 µM (inactive)	> 100 µM (inactive)	> 100 µM (inactive)	36.2 µM (inactive)	92.3 µM (inactive)	72.6 µM (inactive)	> 100 µM (inactive)	3.01 µM (inactive)	34.4 µM (inactive)
OC(CC1CCCCN1)c1ccc2c(c1)oc1ccccc12 (stereo not drawn)	> 100 µM (inactive)	33.3 µM (inactive)	> 100 µM (inactive)	91.2 µM (inactive)	55.6 µM (inactive)	39.5 µM (inactive)	38.9 µM (inactive)	> 100 µM (inactive)	> 100 µM (inactive)	> 100 µM (inactive)	84.1 µM (inactive)	46.1 µM (inactive)	57.3 µM (inactive)	> 100 µM (inactive)	17.8 µM (inactive)	> 100 µM (inactive)	> 100 µM (inactive)	39.6 µM (inactive)	67.3 µM (inactive)	22.6 µM (inactive)
OC(CCN1CCN(CCOC(c2ccc(F)cc2)c2ccc(F)cc2)CC1)c1ccc(Br)cc1 (stereo not drawn)	2.68 µM (inactive)	2.77 µM (inactive)	2.77 µM (inactive)	6.12 µM (inactive)	4.57 µM (inactive)	2.45 µM (inactive)	2.12 µM (inactive)	6.75 µM (inactive)	2.21 µM (inactive)	3.34 µM (inactive)	2.02 µM (inactive)	2.67 µM (inactive)	3.94 µM (inactive)	4.76 µM (inactive)	1.69 µM (inactive)	2.68 µM (inactive)	7.6 µM (inactive)	9.77 µM (inactive)	2.34 µM (inactive)	4.06 µM (inactive)
